Measured values published in US20220401461A1, “Pharmaceutical Composition for Protecting Cartilage” (Kyoto University, priority 2019, published 2022).
Structures can show the parent of a compound that is named as a salt.

How the values were obtained:
[1] = test system: MMP13 and MMP1 in human chondrocytes; assay: Gene expression of MMP13 and MMP1 by real-time PCR in human chondrocytes cultured in the presence of IL-1β; type: cell-based; settings: IL-1β 2 ng/mL; KUS121 12.5, 25, 50, or 100 μM; 24 hours; in a dose-dependent manner; FIG. 10
Experimental: Human chondrocytes were cultured on a 24-well plate to 70-80% confluence and cultured in the medium without FBS for 24 hours. The cells were then cultured in the medium containing IL-1β (2 ng/mL) and KUS121 (12.5, 25, 50, or 100 μM) for 24 hours. Messenger RNAs were extracted from the cells and cDNAs were generated by reverse transcription. Gene expression levels of MMP13 and MMP1 were determined by real-time PCR. KUS121 suppressed expression of MMP13 and MMP1, which are collagenases, in a dose-dependent manner.

[2] = test system: p-JNK in human chondrocytes; assay: Western blotting for p-JNK and JNK in human chondrocytes cultured in the presence of tunicamycin; type: cell-based; settings: tunicamycin 3 μg/mL; KUS121 12.5, 25, 50, or 100 μM; 8 hours; in a dose-dependent manner; FIG. 9
Experimental: (§1) Human chondrocytes were cultured to 70-80% confluence. Tunicamycin (3 μg/mL) and KUS121 (12.5, 25, 50, or 100 μM) were added to the medium and the cells were cultured for further 8 hours. Proteins were collected from the cells and subjected to Western blotting. As primary antibodies, p-JNK (Cell Signaling Technology, #4668), JNK (Cell Signaling Technology, #9252), and β-actin (Cell Signaling Technology, #5125) were used. KUS121 suppressed expression of phosphorylated JNK (p-JNK), a MAP kinase, in a dose-dependent manner.

mouse chondrocytes [3] = assay: Glucose starvation stress: relative number of viable cells (WST8) in mouse chondrocytes; type: cell-based; settings: chondrocytes differentiated from ATDCS cells; medium containing no glucose; 100 μM KUS121; five days; FIG. 2
Experimental: (§2) Cells of mouse teratocarcinoma-derived cell line ATDCS (J Cell Biol. 1996 April; 133(2):457-68) were cultured in DMEM/Ham's F12 medium containing 5% FBS. The cells were passaged to a 12-well plate at the density of 3×10^4 cells/well and cultured in the presence of insulin (10 μg/ml) (start of differentiation induction, Day 0). The cells were differentiated into chondrocytes by differentiation induction for 14 to 21 days. The cells were used in the following experiments.
The chondrocytes were cultured in the medium containing no glucose and containing KUS 121 (50 or 100 μM) for five days from Day 17 of the differentiation induction. Relative number of viable cells was determined by using WST8.

[4] = test system: traumatic cartilage damage model rats; assay: Traumatic cartilage damage model (periodic compression to knee joints) in rats; type: in vivo; settings: rat, KUS121 20 mg/ml, 100 μl intraarticularly; for Modified Mankin score of posterolateral femoral condyle: versus control group, FIG. 15
Description: It is known that a mouse that has been given periodic compression to a knee joint can be used as a model of post-traumatic cartilage damage (Wu P, Sandell L, et al. Arthritis Rheumatol. 2014; 66(5):1256-65). In a similar manner, a rat post-traumatic cartilage damage model was generated. Specifically, a knee of a hind limb was deeply flexed and fixed on the table of Autograph (Shimadzu Corporation) with the patella facing down. A vertical load of 5 N was applied downward from the heel, then 240 loads of 20 N at the maximum were applied with 5-second intervals. […] This model was used for the following experiments.
Knee joints of 12-week old male Wister rats (five rats per group) were given periodic compression by the method described above. KUS121 (20 mg/ml) in 5% glucose solution (100 μl) was intraarticularly administered to rats in KUS 121 group immediately before the operation and at Day 1, 2, and 3 after the operation. To rats in the control group 5% glucose solution (100 μl) was administered. The rats were sacrificed two or four weeks after the operation. Damages of posterolateral femoral condyle were histologically evaluated.

[5] = test system: Bip and CHOP in mouse chondrocytes; assay: Western blotting for Bip and CHOP in mouse chondrocytes cultured in the presence of tunicamycin; type: cell-based; settings: tunicamycin 3 μg/mL; KUS121 50 or 100 μM; 6 hours; FIG. 4
Experimental: as §2
On Day 15 of the differentiation induction, tunicamycin (3 μg/mL) and KUS121 (50 or 100 μM) were added to the medium and the chondrocytes were cultured for 6 hours. The cells were subjected to Western blotting. As primary antibodies, Bip (Cell Signaling #3177S), CHOP (Proteintech #15204-1-AP), and actin (Sigma #A5441) were used. Expression of Bip and CHOP was suppressed in the presence of KUS121. Bip is an ER stress marker and CHOP induces apoptosis related to ER stress.

[6] = test system: caspase 3/7 activity of human chondrocytes; assay: Caspase 3/7 activity (Casp3/7 Glo assay) of human chondrocytes cultured in the presence of tunicamycin; type: cell-based; settings: tunicamycin 3 μg/mL; KUS121 100 μM; 6 hours; FIG. 7
Experimental: Human chondrocytes were cultured to 70-80% confluence. Tunicamycin (3 μg/mL) and KUS121 (100 μM) were added to the medium and the cells were cultured for further 6 hours. Casp3/7 Glo assay (Promega) was used in accordance with the manufacture's instructions and caspase 3/7 activity was determined by luminometer. The caspase activity was increased by adding tunicamycin, but not increased in the presence of KUS121.

mouse chondrocytes [7] = assay: Tm stress: relative number of viable cells (WST8) in mouse chondrocytes cultured in the presence of tunicamycin; type: cell-based; settings: chondrocytes differentiated from ATDCS cells; tunicamycin 0.2 μg/mL; KUS121 50 or 100 μM; 40 hours; FIG. 1
Experimental: as §2
On Day 15 of the differentiation induction, tunicamycin (0.2 μg/mL), which induces ER stress, and KUS121 (50 or 100 μM) were added to the medium and the chondrocytes were cultured for 40 hours. Relative number of viable cells was determined by using 2-(2-methoxy-4-nitrophenyl)-3-(4-nitrophenyl)-5-(2,4-disulfophenyl)-2H-tetrazolium monosodium salt (WST8).

[8] = test system: cCasp3 in mouse chondrocytes; assay: Western blotting for cCasp3 in mouse chondrocytes cultured in the presence of TNFα; type: cell-based; settings: TNFα 20 ng/mL; KUS121 50 or 100 μM; 48 hours; cCasp3 antibody; FIG. 5
Experimental: as §2
On Day 15 of the differentiation induction, TNFα (20 ng/mL) and KUS121 (50 or 100 μM) were added to the medium and the chondrocytes were cultured for 48 hours. The cells were subjected to Western blotting. As primary antibodies, cCasp3 (Cell Signaling #9661S) and actin (Sigma #A5441) were used. Expression of Casp3, an apoptosis marker, was suppressed in the presence of KUS121.

mouse chondrocytes [9] = assay: TNFα stress: relative number of viable cells (WST8) in mouse chondrocytes; type: cell-based; settings: chondrocytes differentiated from ATDCS cells; TNFα 10 ng/mL; KUS121 50 or 100 μM; 48 hours; FIG. 3
Experimental: as §2
On Day 15 of the differentiation induction, TNFα (10 ng/mL), which induces apoptosis, and KUS121 (50 or 100 μM) were added to the medium and the chondrocytes were cultured for 48 hours. Relative number of viable cells was determined by using WST8.

human chondrocytes = assay: Viable cells (CCK-8) in monolayer human chondrocytes cultured in the presence of tunicamycin; type: cell-based; settings: tunicamycin 3 μg/mL and KUS121 100 μM for 24 hours, then 0.5% FBS medium for 48 hours; FIG. 6
Experimental: Chondrocytes were collected from a knee joint removed from a patient in knee replacement surgery. The cells were cultured in DMEM-F12 (Gibco, 11330-032) on a 24-well plate to 70-80% confluence and cultured in the medium without FBS for further 24 hours. The cells were then cultured in the medium containing tunicamycin (3 μg/mL) and KUS121 (100 μM) for 24 hours. The medium was replaced with the medium containing 0.5% FBS and the cells were cultured for 48 hours. For counting viable cells, CCK-8 (DOJINDO LABORATORIES) was added, which is a kit for cell counting comprising WST8 as a chromogenic substrate. The cells were incubated for 15 minutes at 37° C. and the absorbances (450 nm, 570 nm) were determined. Viable cells were decreased by adding tunicamycin, but not decreased in the presence of KUS121.

[10] = test system: Knee osteoarthritis model rats; assay: Knee osteoarthritis model (monoiodoacetate, MIA) in rats; type: in vivo; settings: rat, 50 mg/Kg/day intraperitoneally, two weeks after MIA administration
Experimental: It is known that intraarticularly administered monoiodoacetate (MIA) damages chondrocytes and suppresses secretin of collagen and proteoglycan to induce osteoarthritis (M. Udo et al., Osteoarthritis Cartilage. 2016, 24:1284-91). Knee osteoarthritis model rats were generated by administering 0.5 mg of monoiodoacetate (MIA) in 25 μl of saline solution into knee joint cavities of both hind limbs of healthy rats. Prior to the MIA administration, 50 mg/Kg/day of KUS121 was administered intraperitoneally for four days. After the MIA administration, the same amount of KUS121 was administered intraperitoneally five days per week.
Two weeks after the MIA administration the knee cartilages of the rats were resected, fixed with 10% neutral buffered formalin for about one week, demineralized with Morse's solution (for two weeks) or EDTA (for one month), cleaved along the medial collateral ligament, and embedded in paraffin with the cut surface facing up. Sections were cut every 100-200 μm with a thickness of 3-6 μm. The sections were stained with Safranin-O, which stains chondrocytes, and observed with a fluorescence microscope (KEYENCE BZ9000). […] In addition, three blinded evaluators evaluated ORSI scores for medial femur, lateral femur, medial tibia, and lateral tibia on the basis of the results of the Safranin-O staining. […]

[11] = test system: Bip, ATF4, and CHOP in human chondrocytes; assay: Western blotting for Bip, ATF4 and CHOP in human chondrocytes cultured in the presence of tunicamycin; type: cell-based; settings: tunicamycin 3 μg/mL; KUS121 12.5, 25, 50, or 100 μM; 8 hours; in a dose-dependent manner; FIG. 8
Experimental: as §1, with “Bip” for “p-JNK”, “#3177), ATF4” for “#4668), JNK”, “#11815), CHOP (Cell Signaling Technology, #2895),” for “#9252),”, “used. In the absence of tunicamycin expressions of ATF4 and CHOP were observed, but the expression levels were quite low. In the presence of tunicamycin” for “used.”, “Bip, ATF4, and CHOP” for “phosphorylated JNK (p-JNK), a MAP kinase,”

[12] = test system: human femorotibial joint cartilage; assay: Organ culture of human cartilage: number of viable cells (CCK-8); type: cell-based; settings: cartilage of posterolateral femoral condyle; KUS121 100 μM; 72 hours; FIG. 11
Experimental: From a knee joint removed from a patient in knee replacement surgery cartilage of femorotibial joint (posterolateral femoral condyle) was collected by using a biopsy punch having a diameter of 7 mm. The cartilage was cultured in the medium without FBS for 48 hours and then in the medium containing KUS121 (100 μM) for 72 hours. Number of viable cells was determined by washing the cartilage with PBS, adding CCK-8, incubating the cartilage for 30 minutes at 37° C., and determining the absorbances (450 nm, 570 nm). Number of viable cells was larger in the presence of KUS121.

Cc1cc(F)ccc1-c1ccc(/N=N/c2cc(S(=O)(=O)O)c3ccccc3c2N)cn1 [KUS121, 4-amino-3-[6-(4-fluoro-2-methylphenyl)pyridine-3-ylazo]naphthalene-1-sulfonic acid sodium salt]
Gene expression of MMP1, real-time PCR [1]: suppressed
Gene expression of MMP13, real-time PCR [1]: suppressed
Expression of phosphorylated JNK (p-JNK), Western blotting [2]: suppressed
Cell death (relative number of viable cells, WST8) (mouse chondrocytes [3]): significantly suppressed
Volume of cartilage damage in posterolateral femoral condyle ([4]; four weeks after the operation, FIG. 16): significantly reduced
Number of chondrocytes in posterolateral femoral condyle ([4]; four weeks after the operation, FIG. 17): significantly higher
Modified Mankin score of posterolateral femoral condyle ([4]; four weeks after the operation): no significant difference
Modified Mankin score of posterolateral femoral condyle ([4]; two weeks after the operation): significantly lower
Expression of Bip (ER stress marker), Western blotting [5]: suppressed
Expression of CHOP, Western blotting [5]: suppressed
Caspase 3/7 activity [6]: not increased
Cell death (relative number of viable cells, WST8) (mouse chondrocytes [7]): significantly suppressed
Expression of Casp3, an apoptosis marker, Western blotting [8]: suppressed
Cell death (relative number of viable cells, WST8) (mouse chondrocytes [9]): significantly suppressed
Viable cells (CCK-8) (human chondrocytes): not decreased
Safranin-O staining of knee cartilage sections (indicates chondrocytes) ([10]; versus control group (PBS), FIG. 12, 13): darker
ORSI score (mean of medial femur, lateral femur, medial tibia, lateral tibia) ([10]; versus control group, FIG. 14): lower
Expression of ATF4, Western blotting [11]: suppressed
Expression of Bip, Western blotting [11]: suppressed
Expression of CHOP, Western blotting [11]: suppressed
Number of viable cells (CCK-8) [12]: larger
